According to patent publication US20140271734A1, “BILE ACID RECYCLING INHIBITORS FOR TREATMENT OF BARRETT'S ESOPHAGUS AND GASTROESOPHAGEAL REFLUX DISEASE” (LUMENA PHARMACEUTICALS, INC., priority 2013, published 2014):

Key:
[1] = test system: fecal total bile acid (FBA); assay: Fecal bile acids in dogs, LUM001 daily; type: in vivo, beagle dogs; details: 14 Days; for Weight-Adjusted Fecal Total Bile Acids Excretion: n=8
Procedure: Healthy female and male beagle dogs in the age range of 8 to 10 months were used. The animals were acclimated for at least four weeks before dose administration. Four female and four male dogs per dose group (groups 2-5) were given single daily doses of LUM001 at 1, 4, 12 and 30 mg free form/kg for 13 days. Animals in the control group (group 1) were given the same number of empty capsules as the animals of group 5 to treat all dose groups the same.
Fecal samples were collected to determine the fecal total bile acid (FBA) concentration for each animal. Fecal collections were made during the final 72 hours of the study, for three consecutive 24-hour periods between 9:00 am and 10:00 am each day, prior to dosing and feeding. The separate daily collections from each dog were weighed, combined and homogenized with distilled water in a food processor to generate a homogeneous slurry. Homogenate (1.4 g) was extracted in a final concentration ratio of 2:0.6 of 50% (v/v) tertiary butanol/distilled water for 45 minutes in a 37° C. water bath and subjected to centrifugation for 13 minutes at 2000×g. The concentration of bile acids (mmolesgram homogenate) was determined using a 96-well enzymatic assay system. Aliquots of the fecal extracts (20 μl) were added to two sets of triplicate wells in a 96 well assay plate. A standardized sodium taurocholate solution and a standardized fecal extract solution (previously made from pooled samples and characterized for its bile acid concentration) were also analyzed for assay quality control. Aliquots of sodium taurocholate (20 μl), were serially diluted to generate a standard curve containing 30-540 nmoles/well. A 230 μl aliquot of reaction mixture containing 1M hydrazine hydrate, 0.1 M pyrophosphate and 0.46 mg/ml NAD was added to each well. Subsequently, a 50 μl aliquot of either 3a-hydroxysteroid dehydrogenase enzyme (HSD; 0.8 units/ml) or assay buffer (0.1 M sodium pyrophosphate) was added to one each of the two sets of triplicates. Following 60 minutes of incubation at room temperature, the optical density at 340 nm was measured and the mean of each set of triplicate samples was calculated. The difference in optical density±HSD enzyme was used to determine the bile acid concentration (mM) of each sample based on the sodium taurocholate standard curve. The bile acid concentration of the extract (mmolesgram homogenate), the total weight of the fecal homogenate (grams) and the body weight of the dogs (kg) were used to calculate the corresponding FBA concentration in mmoles/kg/day for each animal. All reagents used for the assay were obtained from Sigma Chemical Co., St. Louis, Mo. (HSD—catalog # H-1506; NAD—catalog # N1636; sodium taurocholate—catalog # T-4009). A one-tailed, paired Student's t-test was used to determine the statistical significance of changes in FBA concentration in treated animals compared to pretreatment values and between treatment groups.

plasma amylase = assay: Plasma amylase in ZDF rats, week 3; type: in vivo; details: twice daily oral gavage

Row | SMILES | Weight-Adjusted Fecal Total Bile Acids Excretion, % change from vehicle group ([1]; 1 mg/kg/day) | Weight-Adjusted Fecal Total Bile Acids Excretion ([1]; 1 mg/kg/day) [µmol/day/kg] | Weight-Adjusted Fecal Total Bile Acids Excretion, % change from vehicle group ([1]; 4 mg/kg/day) | Weight-Adjusted Fecal Total Bile Acids Excretion ([1]; 4 mg/kg/day) [µmol/day/kg] | Weight-Adjusted Fecal Total Bile Acids Excretion, % change from vehicle group ([1]; 12 mg/kg/day) | Weight-Adjusted Fecal Total Bile Acids Excretion ([1]; 12 mg/kg/day) [µmol/day/kg] | Weight-Adjusted Fecal Total Bile Acids Excretion, % change from vehicle group ([1]; 30 mg/kg/day) | Weight-Adjusted Fecal Total Bile Acids Excretion ([1]; 30 mg/kg/day) [µmol/day/kg] | Plasma amylase (plasma amylase)
1 | CCCCC1(CCCC)CS(=O)(=O)c2ccc(N(C)C)cc2[C@@H](c2ccc(OCc3ccc(C[N+]45CCN(CC4)CC5)cc3)cc2)[C@H]1O [LUM001] | (+63) % | 96 ± 9 | (+137) % | 140 ± 6 | (+158) % | 152 ± 13 | (+183) % | 167 ± 15 | –
2 | CCCC[C@]1(CC)CS(=O)(=O)c2ccc(N(C)C)cc2[C@@H](c2cccc(NC(=O)N[C@@H]3O[C@H](COS(=O)(=O)[O-])[C@@H](O)[C@H](OCc4ccccc4)[C@H]3O)c2)[C@H]1O.CCO.O.[K+] [LUM002, potassium((2R,3R,4S,5R,6R)-4-benzyloxy-6-{3-[3-((3S,4R,5R)-3-butyl-7-dimethylamino-3-ethyl-4-hydroxy-1,1-dioxo-2,3,4,5-tetrahydro-1H-benzo[b]thiepin-5-yl)-phenyl]-ureido}-3,5-dihydroxy-tetrahydro-pyran-2-ylmethyl)sulphate ethanolate, hydrate] | – | – | – | – | – | – | – | – | Neither LUM002 nor SC-435 caused a statistically significant changes
